# Laboratory results: PubChem BioAssay AID1963866 (Molecular Pharmacology Branch, DTP, NCI, 2024)
# Tested on: PDC KRAS tumor spheroids with HUVEC/MSC, viability
# Experiment: Anticancer human tumor 349418-098-R-PDC patient-derived lung adenocarcinoma cell line growth inhibition [KRAS2]
# Details: for viability, T/C: stronger effect = lower value
# In short: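 Combination screen of spheroid viability in tumor-cell co-cultures with endothelial (HUVEC) and mesenchymal stem cell stroma. Each agent was tested in half-log dilutions, topping at clinical Cmax or at 10 microM without a known Cmax.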
# [1] = curve of first compound, second compound 0.1 µM
# [2] = curve of first compound, second compound 0.316 µM
# [3] = curve of first compound, second compound 1 µM
# [4] = curve of first compound, second compound 3.16 µM
# [5] = curve of first compound, second compound 10 µM
# [6] = second compound 0.1 µM, first compound 0.01 µM
# [7] = second compound 0.1 µM, first compound 0.0316 µM
# [8] = second compound 0.1 µM, first compound 0.1 µM
# [9] = second compound 0.316 µM, first compound 0.01 µM
# [10] = second compound 0.316 µM, first compound 0.0316 µM
# [11] = second compound 0.316 µM, first compound 0.1 µM
# [12] = second compound 1 µM, first compound 0.01 µM
# [13] = second compound 1 µM, first compound 0.0316 µM
# [14] = second compound 1 µM, first compound 0.1 µM
# [15] = second compound 3.16 µM, first compound 0.01 µM
# [16] = second compound 3.16 µM, first compound 0.0316 µM
# [17] = second compound 3.16 µM, first compound 0.1 µM
# [18] = second compound 10 µM, first compound 0.01 µM
# [19] = second compound 10 µM, first compound 0.0316 µM
# [20] = second compound 10 µM, first compound 0.1 µM
# [21] = second compound 0.1 µM, first compound 0.316 µM
# [22] = second compound 0.1 µM, first compound 1 µM
# [23] = second compound 0.1 µM, first compound 3.16 µM
# [24] = second compound 0.316 µM, first compound 0.316 µM
# [25] = second compound 0.316 µM, first compound 1 µM
# [26] = second compound 0.316 µM, first compound 3.16 µM
# [27] = second compound 1 µM, first compound 0.316 µM
# [28] = second compound 1 µM, first compound 1 µM
# [29] = second compound 1 µM, first compound 3.16 µM
# [30] = second compound 3.16 µM, first compound 0.316 µM
# [31] = second compound 3.16 µM, first compound 1 µM
# [32] = second compound 3.16 µM, first compound 3.16 µM
# [33] = second compound 10 µM, first compound 0.316 µM
# [34] = second compound 10 µM, first compound 1 µM
# [35] = second compound 10 µM, first compound 3.16 µM
# [36] = second compound 0.1 µM, first compound 10 µM
# [37] = second compound 0.316 µM, first compound 10 µM
# [38] = second compound 1 µM, first compound 10 µM
# [39] = second compound 3.16 µM, first compound 10 µM
# 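Further: spheroids exposed to compounds for seven days before readout.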
structure (smiles),measurement,setting,value
CN(C)C/C=C/C(=O)Nc1cc2c(Nc3ccc(F)c(Cl)c3)ncnc2cc1O[C@H]1CCOC1 + COc1cc2nc(C)nc(NC(C)c3cc(N)cc(C(F)(F)F)c3)c2cc1OC1CCOC1,IC50,[1],> 100 nM
same,IC50,[2],> 100 nM
same,IC50,[3],> 100 nM
same,IC50,[4],> 100 nM
same,IC50,[5],> 100 nM
same,"viability, T/C","second compound 0.1 µM, first compound 0.000316 µM",97.6%
same,"viability, T/C","second compound 0.1 µM, first compound 0.001 µM",104%
same,"viability, T/C","second compound 0.1 µM, first compound 0.00316 µM",88.8%
same,"viability, T/C",[6],95.3%
same,"viability, T/C",[7],93.8%
same,"viability, T/C",[8],92.8%
same,"viability, T/C","second compound 0.316 µM, first compound 0.000316 µM",87.2%
same,"viability, T/C","second compound 0.316 µM, first compound 0.001 µM",102%
same,"viability, T/C","second compound 0.316 µM, first compound 0.00316 µM",92.2%
same,"viability, T/C",[9],102%
same,"viability, T/C",[10],87.5%
same,"viability, T/C",[11],88.2%
same,"viability, T/C","second compound 1 µM, first compound 0.000316 µM",91.5%
same,"viability, T/C","second compound 1 µM, first compound 0.001 µM",97.4%
same,"viability, T/C","second compound 1 µM, first compound 0.00316 µM",101%
same,"viability, T/C",[12],92.8%
same,"viability, T/C",[13],90.8%
same,"viability, T/C",[14],91.9%
same,"viability, T/C","second compound 3.16 µM, first compound 0.000316 µM",74.7%
same,"viability, T/C","second compound 3.16 µM, first compound 0.001 µM",78.2%
same,"viability, T/C","second compound 3.16 µM, first compound 0.00316 µM",70.3%
same,"viability, T/C",[15],77.7%
same,"viability, T/C",[16],67.6%
same,"viability, T/C",[17],75.1%
same,"viability, T/C","second compound 10 µM, first compound 0.000316 µM",74%
same,"viability, T/C","second compound 10 µM, first compound 0.001 µM",69.7%
same,"viability, T/C","second compound 10 µM, first compound 0.00316 µM",73.2%
same,"viability, T/C",[18],78.8%
same,"viability, T/C",[19],73.4%
same,"viability, T/C",[20],62.8%
CC(=O)OC12COC1CC(O)C1(C)C(=O)C(O)C3=C(C)C(OC(=O)C(O)C(NC(=O)OC(C)(C)C)c4ccccc4)CC(O)(C(OC(=O)c4ccccc4)C21)C3(C)C (stereo unspecified) + C=CC(=O)N1CCN(c2nc(=O)n(-c3c(C)ccnc3C(C)C)c3nc(-c4c(O)cccc4F)c(F)cc23)C(C)C1,IC50,[1],< 10 nM
same,IC50,[2],< 10 nM
same,IC50,[3],< 10 nM
same,IC50,[4],< 10 nM
same,IC50,[5],< 10 nM
same,"viability, T/C",[6],11.3%
same,"viability, T/C",[7],12.3%
same,"viability, T/C",[8],16%
same,"viability, T/C",[21],14.9%
same,"viability, T/C",[22],24%
same,"viability, T/C",[23],21.2%
same,"viability, T/C",[9],10.2%
same,"viability, T/C",[10],12.7%
same,"viability, T/C",[11],16.7%
same,"viability, T/C",[24],17.9%
same,"viability, T/C",[25],18%
same,"viability, T/C",[26],20.1%
same,"viability, T/C",[12],11.1%
same,"viability, T/C",[13],14.2%
same,"viability, T/C",[14],11.6%
same,"viability, T/C",[27],14.8%
same,"viability, T/C",[28],20.5%
same,"viability, T/C",[29],18.3%
same,"viability, T/C",[15],9.17%
same,"viability, T/C",[16],13.1%
same,"viability, T/C",[17],13.4%
same,"viability, T/C",[30],12.6%
same,"viability, T/C",[31],15.5%
same,"viability, T/C",[32],15.9%
same,"viability, T/C",[18],9.5%
same,"viability, T/C",[19],11%
same,"viability, T/C",[20],9.81%
same,"viability, T/C",[33],9.76%
same,"viability, T/C",[34],11.7%
same,"viability, T/C",[35],11.9%
Cn1nccc1Nc1nccc(-c2cc3c(s2)C(C)(C)N(CCN2CCOCC2)C3=O)n1 + COc1cc2nc(C)nc(NC(C)c3cc(N)cc(C(F)(F)F)c3)c2cc1OC1CCOC1,IC50,[1],52.4 nM
same,IC50,[2],37.4 nM
same,IC50,[3],36.3 nM
same,IC50,[4],< 31.6 nM
same,IC50,[5],< 31.6 nM
same,"viability, T/C",[7],71.1%
same,"viability, T/C",[8],22.4%
same,"viability, T/C",[21],12.5%
same,"viability, T/C",[22],7.65%
same,"viability, T/C",[23],6.07%
same,"viability, T/C",[36],4.14%
same,"viability, T/C",[10],55.6%
same,"viability, T/C",[11],19%
same,"viability, T/C",[24],12.2%
same,"viability, T/C",[25],6.27%
same,"viability, T/C",[26],6.54%
same,"viability, T/C",[37],4.93%
same,"viability, T/C",[13],53.4%
same,"viability, T/C",[14],24.2%
same,"viability, T/C",[27],8.8%
same,"viability, T/C",[28],7.31%
same,"viability, T/C",[29],5.44%
same,"viability, T/C",[38],4.32%
same,"viability, T/C",[16],41.8%
same,"viability, T/C",[17],19.1%
same,"viability, T/C",[30],7.42%
same,"viability, T/C",[31],5.91%
same,"viability, T/C",[32],4.66%
same,"viability, T/C",[39],4.79%
same,"viability, T/C",[19],15.1%
same,"viability, T/C",[20],7.62%
same,"viability, T/C",[33],4.31%
same,"viability, T/C",[34],3.93%
same,"viability, T/C",[35],2.92%
same,"viability, T/C","second compound 10 µM, first compound 10 µM",2.13%
CCNC(=O)CC1N=C(c2ccc(Cl)cc2)c2cc(OC)ccc2-n2c(C)nnc21 (stereo unspecified),"viability, T/C",compound 0.1 µM,57.3% [middle of 5 runs]
same,"viability, T/C",compound 0.316 µM,30.4% [middle of 5 runs]
same,"viability, T/C",compound 1 µM,8.84% [middle of 5 runs]
same,"viability, T/C",compound 3.16 µM,2.06% [middle of 5 runs]
same,"viability, T/C",compound 10 µM,1.07% [middle of 5 runs]
same,IC50,curve of compound,138 nM [middle of 5 runs]
Cn1nccc1Nc1nccc(-c2cc3c(s2)C(C)(C)N(CCN2CCOCC2)C3=O)n1 + C=CC(=O)N1CCN(c2nc(OCC3CCCN3C)nc3c2CCN(c2cccc4cccc(C)c24)C3)CC1CC#N,IC50,"curve of first compound, second compound 0.0316 µM",44.7 nM
same,IC50,[1],59.7 nM
same,IC50,[2],49.3 nM
same,IC50,[3],< 31.6 nM
same,IC50,[4],< 31.6 nM
same,"viability, T/C","second compound 0.0316 µM, first compound 0.0316 µM",57.1%
same,"viability, T/C","second compound 0.0316 µM, first compound 0.1 µM",33.1%
same,"viability, T/C","second compound 0.0316 µM, first compound 0.316 µM",20.7%
same,"viability, T/C","second compound 0.0316 µM, first compound 1 µM",8.51%
same,"viability, T/C","second compound 0.0316 µM, first compound 3.16 µM",7.52%
same,"viability, T/C","second compound 0.0316 µM, first compound 10 µM",5.99%
same,"viability, T/C",[7],70.2%
same,"viability, T/C",[8],31.8%
same,"viability, T/C",[21],21.5%
same,"viability, T/C",[22],8.37%
same,"viability, T/C",[23],7.54%
same,"viability, T/C",[36],5.51%
same,"viability, T/C",[10],62.2%
same,"viability, T/C",[11],31%
same,"viability, T/C",[24],14.8%
same,"viability, T/C",[25],9.55%
same,"viability, T/C",[26],7.33%
same,"viability, T/C",[37],4.36%
same,"viability, T/C",[13],41.5%
same,"viability, T/C",[14],32.5%
same,"viability, T/C",[27],13.6%
same,"viability, T/C",[28],7.03%
same,"viability, T/C",[29],4.51%
same,"viability, T/C",[38],3.02%
same,"viability, T/C",[16],0.13%
same,"viability, T/C",[17],0.09%
same,"viability, T/C",[30],0.07%
same,"viability, T/C",[31],0.07%
same,"viability, T/C",[32],0.07%
same,"viability, T/C",[39],0.17%
